Test results reported in patent US8563742B2, “Substituted aminothiazole derivatives, pharmaceutical compositions, and methods of use” (High Point Pharmaceuticals, LLC, priority 2008, dated 2013).

Tests used:
human MC-4R = target: T1, human MC-4R (Homo sapiens, UniProt P32245); assay: Biological Assay: inhibition of AgRP functional interaction with MC-4R in presence of αMSH (cAMP production); type: cell-based; conditions: HEK293 cells expressing human MC-4R, AgRP83-132 and αMSH present; read-out: Average EC50 (nM) in Biological Assay
T1 construct: expressed in transfected cells
In short: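 HEK293 cells stably expressing human MC-4R (20,000/well) in EBSS/HEPES pH 7.4 with 0.5 mM IBMX. Compounds preincubated 30 min at room temperature with human AgRP83-132, then cells added and stimulated with αMSH 30 min at 37 °C. Intracellular cAMP measured after lysis; inhibition of AgRP seen as increased cAMP.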

[1] = Stability in Liver Microsomes (human); type: in vitro ADME; conditions: 1 μM, 0.5 mg protein/mL, NADPH, 60 minutes, 37° C., pH 7.4
Procedure: (§1) Various compounds were tested for their stability in human, monkey, dog, rat, and mouse liver microsomes. At a final concentration of 1 μM, compounds were incubated with either human, monkey, dog, rat, or mouse liver microsomes (0.5 mg protein/mL) in the presence of an NADPH-solution for 60 minutes at 37° C., pH 7.4 in phosphate buffer. Incubations were performed in duplicate. Reactions were terminated by the addition of methanol. The incubation solution was vortexed and transferred into a 96-well plate. The plate was sealed and centrifuged at approximately 3500 rpm for approximately 10 minutes. After centrifugation, the plate was loaded into 96-well plate autosampler and analyzed by LC/MS. Values are reported as percent of compound remaining after 1 hour.

[2] = Stability in Liver Microsomes (monkey); type: in vitro ADME; conditions: 1 μM, 0.5 mg protein/mL, NADPH, 60 minutes, 37° C., pH 7.4
Procedure: as §1

[3] = Stability in Liver Microsomes (dog); type: in vitro ADME; conditions: 1 μM, 0.5 mg protein/mL, NADPH, 60 minutes, 37° C., pH 7.4
Procedure: as §1

[4] = Stability in Liver Microsomes (rat); type: in vitro ADME; conditions: 1 μM, 0.5 mg protein/mL, NADPH, 60 minutes, 37° C., pH 7.4
Procedure: as §1

[5] = Stability in Liver Microsomes (mouse); type: in vitro ADME; conditions: 1 μM, 0.5 mg protein/mL, NADPH, 60 minutes, 37° C., pH 7.4
Procedure: as §1

[6] = male, Sprague Dawley, rat, in vivo, po, 5 mg/kg, 2 h
in vivo = conditions: male, Sprague Dawley, rat, po, 5 mg/kg
OVX rats = assay: Sexual Behavior, sub-chronic regimen in OVX rats; type: in vivo, Rat; conditions: 30 mg/kg/day PO, 5 days
Procedure: Rats were ovariectomized (OVX) under ketamine/xylazine anesthesia with 8 rats per group. OVX rats were then administered estradiol benzoate (10 micrograms) 48 hours and progesterone (500 micrograms) 4 hours before five baseline tests of sexual behavior with sexually vigorous stud males. Tests were 30 minutes in duration and were conducted at 4-day intervals. All females developed normal rates of appetitive and consummatory sexual behavior. Following this baseline test phase, females were switched to an estrogen-alone baseline phase, during which they were administered estradiol benzoate (10 micrograms) 48 hours before tests of sexual behavior with sexually vigorous males. These tests were conducted at 14-day intervals, to assure low rates of appetitive responding (e.g., solicitations, hops and darts). After the second test, females were assigned randomly to 4 groups, a saline control, two doses of Example 7 antagonist (10 and 30 mg/kg, PO), and a positive control using melanotan II (MT-II) (1 mg/kg, SC). The saline control and Example 7 were gavaged daily for 5 days prior to the test. The MT-II control was injected acutely 5 min prior to the test. The test was recorded on video and scored by a technician blind to which drug the animals were receiving. Behaviors were subjected to one-way ANOVAs. For each significant effect, posthoc tests were conducted on the means using the Tukey method, P<0.05.

[7] = system: adult male Sprague Dawley rats; assay: Feeding Study (icv AgRP, food intake and body weight); type: in vivo, Rat
Procedure: 27 adult male Sprague Dawley rats (Charles River Laboratories) were implanted with right lateral cerebral ventricular cannulas and allowed to recover for one week. After one week, animals were then randomized into 4 groups that were matched for food intake and body weight: water gavage-icv saline (n=6); Example 7 gavage-icv saline (n=7); water gavage-icv AgRP (n=7); Example 7 gavage-icv AgRP (n=7). Water or Example 7 (30 mg/kg) was administered at by oral gavage followed by icv injection of either saline or 0.2 nmol human AgRP 83-132. AgRP stimulated food intake and body weight gain over the next 24 h compared to saline controls. Both of these effects of AgRP were blocked by injection administration of Example 7.
On day 2 a second dose of Example 7 (30 mg/kg) or water was administered by oral gavage. On day 3, water or Example 7 (30 mg/kg) was administered for the third and final time by oral gavage followed by icv injection of either saline or 0.2 nmol human AgRP83-132. Food intake and body weight were monitored daily and animals were sacrificed on day 5.

[8] = Pharmacokinetic screening in rats (plasma and brain); conditions: rat, 5 mg/kg PO
[9] = 30 mg/kg oral gavage + icv saline compared to water + icv saline
[10] = 30 mg/kg oral gavage, icv 0.2 nmol human AgRP 83-132, 24 h

T1 sequence (P32245 whole entry): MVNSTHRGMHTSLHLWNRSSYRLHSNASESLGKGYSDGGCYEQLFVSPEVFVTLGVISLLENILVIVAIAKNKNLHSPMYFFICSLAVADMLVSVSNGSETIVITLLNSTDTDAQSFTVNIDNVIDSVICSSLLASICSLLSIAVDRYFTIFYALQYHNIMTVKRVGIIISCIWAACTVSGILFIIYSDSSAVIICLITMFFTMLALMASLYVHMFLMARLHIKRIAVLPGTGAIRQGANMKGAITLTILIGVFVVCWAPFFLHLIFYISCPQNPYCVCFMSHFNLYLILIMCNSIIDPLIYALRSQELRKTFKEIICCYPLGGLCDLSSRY

SMILES	EC50 (human MC-4R) [nM]	Stability in Liver Microsomes (% remaining after 1 hour incubation) Human [1] [%]	Stability in Liver Microsomes (% remaining after 1 hour incubation) Monkey [2] [%]	Stability in Liver Microsomes (% remaining after 1 hour incubation) Dog [3] [%]	Stability in Liver Microsomes (% remaining after 1 hour incubation) Rat [4] [%]	Stability in Liver Microsomes (% remaining after 1 hour incubation) Mouse [5] [%]	Plasma:Brain Ratio [6]	concentration at 2 h (in vivo; Brain - 2 hours (ng/g)) [ng/g]	concentration at 2 h (in vivo; Plasma - 2 hours (ng/mL)) [ng/mL]	concentration at 2 h ([8]; male, Sprague Dawley, plasma, po, 5 mg/kg, Plasma - 2 hours (ng/mL), 2 hour time point) [ng/mL]	Brain - 24 hours AUC (h * ng/g) ([8]; 24 hour study)	increase of mean frequency of high-intensity lordosis postures, factor relative to saline (OVX rats)	increase of mean number of solicitations, factor relative to saline (OVX rats)	increase of mean frequency of high-intensity lordosis postures, factor relative to MT-II (OVX rats; MT-II 1 mg/kg SC)	increase of mean number of solicitations, factor relative to MT-II (OVX rats; MT-II 1 mg/kg SC)	effect on food intake, icv saline [7, 9]	effect on weight gain, icv saline [7, 9]	cumulative weight gain over the entire period, Example 7 + icv AgRP ([7]; 30 mg/kg oral gavage days 1, 2, 3, icv AgRP days 1 and 3, to day 5)	effect on AgRP stimulated body weight gain [7, 10]	effect on AgRP stimulated food intake [7, 10]
O=C([O-])CCN(Cc1cccs1)c1nc(-c2ccc(-c3ccccc3)cc2)cs1.[Na+] [Reference Compound B, Sodium 3-[(4-biphenyl-4-yl-thiazol-2-yl)-thiophen-2-ylmethylamino]-propionate, reference compound]	–	82	64	95	91	99	1.5:1	2110	3080	–	–	–	–	–	–	–	–	–	–	–
CCc1ccc(CN(CCC(=O)[O-])c2nc(C3CCC(c4ccccc4)CC3)cs2)s1.[Na+] (stereo not drawn) [Example 39, Sodium; 3-{(5-ethyl-thiophen-2-ylmethyl)-[4-(4-phenyl-cyclohexyl)-thiazol-2-yl]-amino}-propionate]	275	–	–	–	–	–	4.0:1	1910	7620	–	–	–	–	–	–	–	–	–	–	–

Further compounds by falling EC50 (human MC-4R), results first:

EC50 (human MC-4R) [nM]	Stability in Liver Microsomes (% remaining after 1 hour incubation) Human [1] [%]	Stability in Liver Microsomes (% remaining after 1 hour incubation) Monkey [2] [%]	Stability in Liver Microsomes (% remaining after 1 hour incubation) Dog [3] [%]	Stability in Liver Microsomes (% remaining after 1 hour incubation) Rat [4] [%]	Stability in Liver Microsomes (% remaining after 1 hour incubation) Mouse [5] [%]	Plasma:Brain Ratio [6]	concentration at 2 h (in vivo; Brain - 2 hours (ng/g)) [ng/g]	concentration at 2 h (in vivo; Plasma - 2 hours (ng/mL)) [ng/mL]	concentration at 2 h ([8]; male, Sprague Dawley, plasma, po, 5 mg/kg, Plasma - 2 hours (ng/mL), 2 hour time point) [ng/mL]	Brain - 24 hours AUC (h * ng/g) ([8]; 24 hour study)	SMILES	increase of mean frequency of high-intensity lordosis postures, factor relative to saline (OVX rats)	increase of mean number of solicitations, factor relative to saline (OVX rats)	increase of mean frequency of high-intensity lordosis postures, factor relative to MT-II (OVX rats; MT-II 1 mg/kg SC)	increase of mean number of solicitations, factor relative to MT-II (OVX rats; MT-II 1 mg/kg SC)	effect on food intake, icv saline [7, 9]	effect on weight gain, icv saline [7, 9]	cumulative weight gain over the entire period, Example 7 + icv AgRP ([7]; 30 mg/kg oral gavage days 1, 2, 3, icv AgRP days 1 and 3, to day 5)	effect on AgRP stimulated body weight gain [7, 10]	effect on AgRP stimulated food intake [7, 10]
241	–	–	–	–	–	2.6:1	1460	3780	–	–	CCc1ccc(CN(CCC(=O)[O-])c2nc(C3CCC(C)CC3)cs2)s1.[Na+] (stereo not drawn) [Example 5, Sodium; 3-{(5-ethyl-thiophen-2-ylmethyl)-[4-(4-methyl-cyclohexyl)-thiazol-2-yl]-amino}-propionate]	–	–	–	–	–	–	–	–	–
210	93	84	91	88	88	3.3:1	1580	5160	–	–	CCc1ccc(CN(CCC(=O)[O-])c2nc([C@H]3CC[C@H](C(C)(C)C)CC3)cs2)s1.[Na+] [Example 8, Sodium; 3-[[4-(trans-4-tert-butyl-cyclohexyl)-thiazol-2-yl]-(5-ethyl-thiophen-2-ylmethyl)-amino]-propionate]	–	–	–	–	–	–	–	–	–
159	78	67	66	57	68	–	–	–	6460	++++ (values above 20,000 h*ng/g)	Cc1ccc(CN(CCC(=O)[O-])c2nc([C@H]3CC[C@H](C(C)(C)C)CC3)cs2)s1.[Na+] [Example 7, Sodium; 3-[[4-(trans-4-tert-butyl-cyclohexyl)-thiazol-2-yl]-(5-methyl-thiophen-2-ylmethyl)-amino]-propionate]	3.5	6	3.2	2	no significant effect	no significant effect	less than 15 grams	blocked	blocked
